Literature values as cited in patent US20140031355A1, “HETEROCYCLIC COMPOUNDS AND THEIR USES” (Amgen Inc., priority 2010, published 2014).

Tests used:
[1] = target: T1, p110δ (Homo sapiens, UniProt O00329)
T1 sequence (O00329 1-1044): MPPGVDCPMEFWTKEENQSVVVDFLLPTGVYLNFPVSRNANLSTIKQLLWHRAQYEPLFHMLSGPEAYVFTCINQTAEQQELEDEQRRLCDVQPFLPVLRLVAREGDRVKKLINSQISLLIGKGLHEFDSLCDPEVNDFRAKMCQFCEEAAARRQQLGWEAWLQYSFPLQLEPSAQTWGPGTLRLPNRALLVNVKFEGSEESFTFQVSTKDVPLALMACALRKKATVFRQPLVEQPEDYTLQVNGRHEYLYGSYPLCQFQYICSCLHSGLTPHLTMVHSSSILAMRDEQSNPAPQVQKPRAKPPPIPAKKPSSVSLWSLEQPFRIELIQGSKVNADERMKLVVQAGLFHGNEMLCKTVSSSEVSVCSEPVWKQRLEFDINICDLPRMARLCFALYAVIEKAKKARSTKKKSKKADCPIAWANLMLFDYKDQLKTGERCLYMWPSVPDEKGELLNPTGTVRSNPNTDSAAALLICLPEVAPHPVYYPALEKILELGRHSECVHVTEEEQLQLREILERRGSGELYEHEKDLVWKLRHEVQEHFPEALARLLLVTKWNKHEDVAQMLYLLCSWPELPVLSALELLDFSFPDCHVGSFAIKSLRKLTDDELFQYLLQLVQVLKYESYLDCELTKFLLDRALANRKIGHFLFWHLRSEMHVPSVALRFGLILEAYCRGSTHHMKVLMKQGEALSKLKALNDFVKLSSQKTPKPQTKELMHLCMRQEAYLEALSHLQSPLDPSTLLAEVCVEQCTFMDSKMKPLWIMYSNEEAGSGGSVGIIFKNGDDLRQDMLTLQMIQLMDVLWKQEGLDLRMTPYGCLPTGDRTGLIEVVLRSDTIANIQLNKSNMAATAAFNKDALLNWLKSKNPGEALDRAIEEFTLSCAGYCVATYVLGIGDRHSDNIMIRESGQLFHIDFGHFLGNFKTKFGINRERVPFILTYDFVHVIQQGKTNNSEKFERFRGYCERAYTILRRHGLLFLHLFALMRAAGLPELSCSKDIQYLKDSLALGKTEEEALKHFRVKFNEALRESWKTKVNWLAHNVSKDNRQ

[2] = tested on: protein kinases
[3] = tested on: passive cutaneous anaphylaxis (PCA); conditions: absence of functional delta (IC 87114 and p110δ D910A mice)
[4] = tested on: ovalbumin-induced airway inflammation
[5] = tested on: rheumatoid arthritis model; conditions: in vivo
[6] = tested on: systemic lupus erythematosis model; conditions: in vivo

| Compound | inhibits p110δ [1] | activity against any protein kinases tested [2] | passive cutaneous anaphylaxis (PCA) [3] | inflammation and disease in a murine model of asthma [4] | efficacy in a mouse model of rheumatoid arthritis [5] | onset of disease in a model of systemic lupus erythematosis [6] |
| --- | --- | --- | --- | --- | --- | --- |
| Cc1ccccc1-n1c(Cn2cnc3c(N)ncnc32)nc2cccc(C)c2c1=O [IC87114] | high nanomolar range (triple digit) | no activity | significantly reduced | significantly ameliorate |  |  |
| O=C1NC(=O)/C(=C\c2ccc3nccnc3c2)S1 [AS 605240] |  |  |  |  | efficacious | delay onset of disease |
